Results on one compound are retold here after paper PMC7960626, “Phase I study assessing the mass balance, pharmacokinetics, and excretion of [^14C]-pevonedistat, a NEDD8-activating enzyme inhibitor in patients with advanced solid tumors” (Investigational New Drugs, 2020).

By AUC(0-inf) is commonly meant total exposure, with the tail of the curve extrapolated. One may read the AUC(0-t) as exposure summed from dosing to a finite time, without extrapolation to infinity. The low end stands for less exposure, the high end for more exposure. In general, Cmax refers to the maximum level reached in the sampled fluid or tissue. What is called clearance is the rate of elimination divided by the concentration. Low values mean inefficient removal, high ones efficient removal. What is called half-life is the time needed for the level to fall by half in the phase considered. Low values mean fast loss, high ones slow loss.

Entries after “also recorded” stand apart in the source; their conditions may differ.

Data set [1] concerns tumor cell lines including solid tumors (colon, lung) and hematological malignancies (myeloma, lymphoma). Details: method as in PMID 19509147, PMID 20525923, PMID 20203261. The note with it: preclinical studies; cited from earlier work.
A further data set relates to CYP3A. Details: method as in PMID 30845347. The note with it: in vitro; cited from earlier work.
Data set [2] is described as follows: Plasma PK after a single 1-h IV infusion of [^14C]-pevonedistat 25 mg/m^2 (part A). Format: in vivo, human. The source says: This was a two-part (A and B), open-label, multicenter, mass balance, distribution, metabolism, excretion (DME) study in adult patients with advanced solid tumors. […] Patients were required to stay at the part A study site for approximately 8 days or until the discharge criteria were met, with a maximum estimated confinement period of 9–14 days. Upon completion of part A, patients had the option to participate in part B at Medical Center Hungarian Defense Forces, Budapest, Hungary. […] Treatment was administered for 12 cycles or until discontinuation criteria were met.
Complete urinary and fecal output were collected for analysis of PK (urine) and total radioactivity (urine and feces) throughout the confinement period until discharge criteria were met. Bioanalytical assay methods are shown in the Supplementary Methods. […] In part B, disease assessments were conducted using radiological evaluations (computed tomography [CT] scan or magnetic resonance imaging [MRI], as clinically indicated).
Non-compartmental analysis using Phoenix™ WinNonlin® version 8.0 (Pharsight Corp., Mountain View, California, USA) was used for estimation of PK parameters for pevonedistat in whole blood, plasma, and urine and for total radioactivity in whole blood, plasma, urine, and feces. The following single-dose PK parameters were derived: maximum plasma concentration (Cmax), area under the concentration–time curve from time 0 to infinity (AUC∞), AUC from time 0 to the last quantifiable concentration (AUC0 − last), terminal disposition phase half-life (t1/2), renal clearance (CLR), clearance (CL), and volume of distribution at steady state (Vss).
PK data were summarized using descriptive statistics, and the PK and mass balance parameters described in Supplementary Table S1 were calculated by non-compartmental analysis for each individual patient. Safety was assessed in all patients who received at least one dose of pevonedistat, and TEAEs were coded according to the Medical Dictionary for Regulatory Activities (MedDRA), version 20.0. Analysis of efficacy in part B was descriptive; disease response was assessed in all patients who received at least one dose of pevonedistat, had measurable disease (per entry criteria for part B), and had at least one post-baseline disease assessment. Response assessment was done by the investigator using Response Evaluation Criteria in Solid Tumors (RECIST) version 1.1. SAS version 9.4 was used for all statistical analyses. […]
160 All samples were analyzed applying the methods described below: […]

The mark [3] stands for this setting: human, plasma, single 1-h IV infusion 25 mg/m^2, geometric mean (CV), N = 7.

As for `NS(=O)(=O)OC[C@@H]1C[C@@H](n2ccc3c(N[C@H]4CCc5ccccc54)ncnc32)C[C@@H]1O` [Pevonedistat], the “antitumor activity in cell lines” value in data set [1] is “growth inhibition”. Besides, the “role of CYP3A in metabolism” value in the data set with CYP3A is listed as “substrate of CYP3A; also recorded: major role for CYP3A”. Moreover, the CL renal in data set [2] (human, plasma, iv, 25 mg/m^2) was 13.3 mL/min. In data set [2] (setting [3]), this compound showed an AUC(0-inf) of 1460 ng·h/mL, an AUC(0-t) of 1410 ng·h/mL, a Cmax of 218 ng/mL and a clearance of 537 mL/min. Also, in data set [2] (human, plasma, single 1-h IV infusion 25 mg/m^2, geometric mean (CV), N = 7, read-out: Vss), the Vd turned out to be 296 L. In data set [2] (human, plasma, single 1-h IV infusion 25 mg/m^2, mean (SD), N = 7), this compound gave a half-life of 8.4 h. The “Exposure ratio (AUC∞) of pevonedistat vs. total drug-related material” value in data set [2] (plasma, single 1-h IV infusion 25 mg/m^2, mean) was found to be 0.41. In data set [2] (single dose 25 mg/m^2), the “CLR as share of pevonedistat total plasma clearance” value is “approximately 2.5%”. The “systemic exposure of unchanged pevonedistat as share of drug-related material” value in data set [2] (single dose 25 mg/m^2, part A) is 41%.
